According to the NIST ThermoML archive (doi:10.1016/j.fluid.2018.07.027):
Numbers after ± are expanded uncertainties.

Assays:
[1] = 298.15 K, 101.33 kPa, Liquid; for speed of sound: Single path-length method; for mass density: Vibrating tube method
[2] = Boiling temperature at pressure P; details: 101.3 kPa; Liquid; Ebulliometric method (Recirculating still)
[3] = refractive index (Na D-line) (dimensionless); details: 298.15 K; 101.33 kPa; Liquid; Standard Abbe refractometry
[4] = xn = mol fraction of the nth substance listed; details: 298.15 K, 101.3 kPa, Liquid; for speed of sound: Frequency=3 MHz, Single path-length method; for mass density: Vibrating tube method
[5] = refractive index (Na D-line) (dimensionless); xn = mol fraction of the nth substance listed; details: 298.15 K, 101.3 kPa, Liquid, Standard Abbe refractometry

CC(C)CC(C)(C)C [2,2,4-trimethylpentane]
Details	Boiling temperature at pressure P [°C]	mass density [kg/m3]	refractive index	speed of sound [m/s]
[1]	–	687.824 ± 0.92	–	1082.8 ± 1.1
[2]	99.01 ± 0.05	–	–	–
[3]	–	–	1.38898 ± 0.00033	–

CC(C)CC(C)(C)C [2,2,4-trimethylpentane] + CCCCO
Details	mass density, [4] [kg/m3]	refractive index, [5]	speed of sound, [4] [m/s]
x1 = 0.0518	795.39 ± 0.93	1.39663 ± 0.00033	1223.4 ± 1.2
x1 = 0.1022	785.94 ± 0.93	1.39603 ± 0.00033	1208.3 ± 1.2
x1 = 0.1512	777.34 ± 0.93	1.39545 ± 0.00033	1194.3 ± 1.1
x1 = 0.2028	768.9 ± 0.92	1.39484 ± 0.00033	1181.5 ± 1.1
x1 = 0.2535	761.12 ± 0.92	1.39426 ± 0.00033	1169.4 ± 1.1
x1 = 0.3042	753.81 ± 0.92	1.39372 ± 0.00033	1157.9 ± 1.1
x1 = 0.3535	747.12 ± 0.92	1.39318 ± 0.00033	1148.6 ± 1.1
x1 = 0.4049	740.56 ± 0.92	1.39266 ± 0.00033	1139.1 ± 1.1
x1 = 0.4534	734.72 ± 0.92	1.39218 ± 0.00033	1130.8 ± 1.1
x1 = 0.5032	729.09 ± 0.92	1.39173 ± 0.00033	1123.4 ± 1.1
x1 = 0.5534	723.73 ± 0.92	1.39128 ± 0.00033	1116.6 ± 1.1
x1 = 0.6041	718.63 ± 0.92	1.39088 ± 0.00033	1110.3 ± 1.1
x1 = 0.6558	713.71 ± 0.92	1.3905 ± 0.00033	1104.5 ± 1.1
x1 = 0.7046	709.35 ± 0.92	1.39016 ± 0.00033	1099.6 ± 1.1
x1 = 0.7521	705.31 ± 0.92	1.38988 ± 0.00033	1095.4 ± 1.1
x1 = 0.8047	701.05 ± 0.92	1.38958 ± 0.00033	1091.1 ± 1.1
x1 = 0.8521	697.48 ± 0.92	1.38934 ± 0.00033	1087.9 ± 1.1
x1 = 0.9005	694.03 ± 0.92	1.38914 ± 0.00033	1085.1 ± 1.1
x1 = 0.9502	690.74 ± 0.92	1.38897 ± 0.00033	1082.8 ± 1.1
x1 = 1	687.79 ± 0.91	1.38898 ± 0.00033	1082.8 ± 1.1

CC(C)CC(C)(C)C [2,2,4-trimethylpentane] + CCCCOCCCC
x1 = 1
Details	mass density [kg/m3]	refractive index	speed of sound [m/s]
[4]	687.71 ± 0.91	–	1082.6 ± 1.1
[5]	–	1.38898 ± 0.00033	–

CCCCO [butan-1-ol]
Details	mass density [kg/m3]	refractive index	speed of sound [m/s]
[1]	805.769 ± 0.91	–	1240.1 ± 1.1
[3]	–	1.39725 ± 0.00033	–

CCCCO [butan-1-ol] + CC(C)CC(C)(C)C
x2 = 0
Details	mass density [kg/m3]	refractive index	speed of sound [m/s]
[4]	805.78 ± 0.91	–	1240.1 ± 1.1
[5]	–	1.39725 ± 0.00033	–
